Experimental data: patent US20170112732A1, “ENCAPSULATION OF ORAL CARE ACTIVE AGENTS” (KONINKLIJKE PHILIPS N.V., priority 2014, published 2017)
Structures can show the parent of a compound that is named as a salt.

Experiment: Determination of ethyl formate solubility in paraffin oil (GC-FID)
Assay type: physicochemical
Experimental: 12 mL of ethyl formate (0.917 g/cm^3) were added to 18 mL of liquid paraffin (density, 0.830 g/cm^3) in a glass bottle. The bottle was then closed with butyl rubber stopper and aluminium crimp seal and seal with a hand crimper before vigorously mixing the system with a vortex for 2 min. The bottle containing the mixture was immersed in a temperature-controlled jacketed beaker for 24 h and to allow the formation of two distinct layers, an upper layer consisting of ethyl formate and Liquid paraffin and the lower layer with only ethyl formate. Samples were withdrawn from the upper layer with a needle, filtered and analysed using a gas chromatography with flame ionisation detector (GC-FID) under the conditions presented in table 2. The quantity of ethyl formate in the mixture was inferred from the calibration curve obtained with different concentration of ethyl formate diluted with anhydrous ethanol.

SMILES: CCOC=O [Ethyl formate, ethyl formate]
- Ethyl formate solubility in liquid paraffin (5 ° C.): 13.4 % v/v
- Ethyl formate solubility in liquid paraffin (10 ° C.): 16.3 % v/v
- Ethyl formate solubility in liquid paraffin (20 ° C.): 26.8 % v/v
- Ethyl formate solubility in liquid paraffin (30 ° C.): 38.9 % v/v
